From US11446298B2, “Pyrimidine derivatives” (Idorsia Pharmaceuticals Ltd, priority 2017, dated 2022)

Legend:
Type in all cases: cell-based
PTGER2 (EP2) = target: T1, PTGER2 (EP2) (Homo sapiens, UniProt P43116); assay: hEP2 b-Arrestin Assay (PathHunter HEK 293 PTGER2 b-arrestin cells, PGE2 5 μM); conditions: antagonistic activity, beta-arrestin assay, HEK 293 PTGER2 cells, PGE2 5 μM (EC80); read-out: hEP2 b-arr IC50
T1 construct: host or cells: HEK 293 (PathHunter, stably transfected)
How it was run: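 PathHunter enzyme-fragment complementation in HEK 293 cells: compounds (10 μM-2 nM or 1 μM-0.2 nM) pre-incubated 15 min at 37 °C, then 5 μM PGE2 (EC80) for 120 min at 37 °C. Chemiluminescence read after 1 h detection; IC50 from duplicate dose-response fits, means of repeats.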

PTGER4 (EP4) = target: T2, PTGER4 (EP4) (Homo sapiens, UniProt P35408); assay: hEP4 b-Arrestin Assay (PathHunter HEK 293 PTGER4 b-arrestin cells, PGE2 20 nM); conditions: antagonistic activity, beta-arrestin assay, HEK 293 PTGER4 cells, PGE2 20 nM (EC80); read-out: hEP4 b-arr IC50
T2 construct: host or cells: HEK 293 (PathHunter, stably transfected)
T2 sequence (P35408 whole entry): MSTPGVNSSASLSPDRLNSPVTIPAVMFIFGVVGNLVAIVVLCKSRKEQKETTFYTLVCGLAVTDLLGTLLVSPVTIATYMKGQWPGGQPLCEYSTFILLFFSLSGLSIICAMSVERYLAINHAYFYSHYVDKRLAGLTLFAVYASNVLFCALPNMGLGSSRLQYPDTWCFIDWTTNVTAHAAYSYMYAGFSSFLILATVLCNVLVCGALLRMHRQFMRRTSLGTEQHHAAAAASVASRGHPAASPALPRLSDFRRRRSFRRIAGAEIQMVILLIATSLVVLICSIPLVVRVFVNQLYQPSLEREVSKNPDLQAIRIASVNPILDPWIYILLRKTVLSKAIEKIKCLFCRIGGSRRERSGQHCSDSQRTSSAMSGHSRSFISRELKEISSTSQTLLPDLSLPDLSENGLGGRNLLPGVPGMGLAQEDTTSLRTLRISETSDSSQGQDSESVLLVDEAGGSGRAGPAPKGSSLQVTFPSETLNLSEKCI
How it was run: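 PathHunter HEK 293 EP4 b-arrestin enzyme-complementation cells preincubated 15 min at 37° C with compound (10 μM-2 nM or 1 μM-0.2 nM), then stimulated 120 min with 20 nM PGE2 (EC80). Chemiluminescence read; IC50 from duplicate % activity vs DMSO, one-site fit, averaged over repeats.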

EP2 = target: T3, EP2 (Homo sapiens, UniProt P43116); assay: hEP2 cAMP Assay (SF295 glioblastoma cells, HTRF cAMP, PGE2 75 nM); conditions: antagonistic activity, PGE2 75 nM (EC80)
T3 construct: SF295 glioblastoma cells express high endogenous EP2 and no EP4; host or cells: SF295 glioblastoma cells
T3 sequence (P43116 whole entry): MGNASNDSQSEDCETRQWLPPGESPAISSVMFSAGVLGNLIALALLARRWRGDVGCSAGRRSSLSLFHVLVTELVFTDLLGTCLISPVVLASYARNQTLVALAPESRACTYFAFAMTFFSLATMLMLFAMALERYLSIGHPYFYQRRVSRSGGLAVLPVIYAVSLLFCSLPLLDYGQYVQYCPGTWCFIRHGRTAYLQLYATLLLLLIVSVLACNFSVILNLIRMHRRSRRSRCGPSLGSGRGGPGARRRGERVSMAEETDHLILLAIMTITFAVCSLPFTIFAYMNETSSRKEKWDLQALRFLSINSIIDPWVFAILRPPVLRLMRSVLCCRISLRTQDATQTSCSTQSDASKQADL
How it was run: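 IC50 values derive from duplicate-point curves of percent cAMP relative to DMSO, read by HTRF (665/620 nm) against a cAMP calibrator. Compounds (30 μM to 0.01 nM ranges) were given 45 min at room temperature before 30 min with 75 nM PGE2, in EP2-only SF295 cells with 2 mM IBMX.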

EP4 = target: T4, EP4 (Homo sapiens, UniProt P35408); assay: hEP4 cAMP Assay (BT549 breast cancer cells, HTRF cAMP, PGE2 6 nM); conditions: antagonistic activity, PGE2 6 nM (EC80)
T4 construct: BT549 breast cancer cells, express high endogenous EP4 levels and very low EP2 levels; host or cells: BT549 breast cancer cells
T4 sequence (P35408 whole entry): as the sequence (P35408 whole entry) above
How it was run: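 Antagonism is measured as inhibition of PGE2 (6 nM final, EC80) cAMP accumulation in EP4-expressing BT549 breast cancer cells, after a 45 min room-temperature compound pre-incubation and 30 min agonist step, with 2 mM IBMX present. HTRF ratio gives cAMP relative to DMSO; IC50 fitted, means over repeat runs.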

T1 sequence (P43116 whole entry): as the sequence (P43116 whole entry) above

Row | SMILES | IC50 (PTGER2 (EP2)) [nM] | IC50 (PTGER4 (EP4)) [nM] | IC50 (EP2) [nM] | IC50 (EP4) [nM]
1 | CCOc1cc(-c2cc(NCCc3c(C)ccc4ncccc34)ncn2)sc1C(=O)O [Example 2, 3-Ethoxy-5-{6-[2-(6-methyl-quinolin-5-yl)-ethylamino]-pyrimidin-4-yl}-thiophene-2-carboxylic acid] | 27 | 311 | 47 | 100
2 | CCOc1cc(-c2cc(NCCc3ccc(Cl)c4ccccc34)ncn2)sc1C(=O)O [Example 62, 5-{6-[2-(4-Chloro-naphthalen-1-yl)-ethylamino]-pyrimidin-4-yl}-3-ethoxy-thiophene-2-carboxylic acid] | 32 | 19 | 24 | 29
3 | COc1ccc2ncccc2c1CCNc1cc(-c2cc(C(F)(F)F)c(C(=O)O)s2)ncn1 [Example 81, 5-{6-[2-(6-Methoxy-quinolin-5-yl)-ethylamino]-pyrimidin-4-yl}-3-trifluoromethyl-thiophene-2-carboxylic acid] | 116 | 427 | 30 | 205
4 | CCOc1cc(-c2cc(NCCc3c(OC)ccc4c3CCO4)ncn2)sc1C(=O)O [Example 34, 3-Ethoxy-5-{6-[2-(5-methoxy-2,3-dihydro-benzofuran-4-yl)-ethylamino]-pyrimidin-4-yl}-thiophene-2-carboxylic acid] | 39 | 114 | 64 | 152
5 | CCOc1cc(-c2cc(NCCc3cccc4[nH]ccc34)ncn2)sc1C(=O)O [Example 39, 3-Ethoxy-5-{6-[2-(1H-indol-4-yl)-ethylamino]-pyrimidin-4-yl}-thiophene-2-carboxylic acid] | 81 | 386 | 50 | 101
6 | CCOc1cc(-c2cc(NCCc3c(C#N)ccc4ccccc34)ncn2)ccc1C(=O)O [Example 67, 4-{6-[2-(2-Cyano-naphthalen-1-yl)-ethylamino]-pyrimidin-4-yl}-2-ethoxy-benzoic acid] | 29 | 499 | 25 | 309
7 | COc1ccc2ccccc2c1CCNc1cc(-c2ccc(C(=O)O)c(OC3CCC3)c2)ncn1 [Example 5, 2-Cyclobutoxy-4-{6-[2-(2-methoxy-naphthalen-1-yl)-ethylamino]-pyrimidin-4-yl}-benzoic acid] | 25 | 182 | 24 | 203
8 | CCOc1cc(-c2cc(NCCc3cccc4ccccc34)ncn2)ccc1C(=O)O [Example 6, 2-Ethoxy-4-[6-(2-naphthalen-1-yl-ethylamino)-pyrimidin-4-yl]-benzoic acid] | 85 | 1690 | 95 | 910
9 | CCOc1cc(-c2cc(NCCc3c(OC)ccc4c3OCO4)ncn2)sc1C(=O)O [Example 44, 3-Ethoxy-5-{6-[2-(5-methoxy-benzo[1,3]dioxol-4-yl)-ethylamino]-pyrimidin-4-yl}-thiophene-2-carboxylic acid] | 36 | 51 | 37 | 42
10 | CCCCOc1cc(-c2cc(NCCc3c(OC)ccc4ccccc34)ncn2)ccc1C(=O)O [Example 119, 2-Butoxy-4-{6-[2-(2-methoxy-naphthalen-1-yl)-ethylamino]-pyrimidin-4-yl}-benzoic acid] | 18 | 222 | 12 | 200
11 | CCOc1cc(-c2cc(NCCc3cccc4cc(C)oc34)ncn2)sc1C(=O)O [Example 74, 3-Ethoxy-5-{6-[2-(2-methyl-benzofuran-7-yl)-ethylamino]-pyrimidin-4-yl}-thiophene-2-carboxylic acid] | 212 | 117 | 78 | 88

Results, then the compound that gave them:

Row | IC50 (PTGER2 (EP2)) [nM] | IC50 (PTGER4 (EP4)) [nM] | IC50 (EP2) [nM] | IC50 (EP4) [nM] | SMILES
12 | 10 | 291 | 3 | 250 | COc1ccc2ccccc2c1CCNc1cc(-c2ccc(C(=O)O)c(OC(F)F)c2)ncn1 [Example 128, 2-Difluoromethoxy-4-{6-[2-(2-methoxy-naphthalen-1-yl)-ethylamino]-pyrimidin-4-yl}-benzoic acid]
13 | 30 | 20 | 71 | 40 | CCOc1cc(-c2cc(NCCc3cccc4cnccc34)ncn2)sc1-c1noc(=O)[nH]1 [Example 144, 3-{3-Ethoxy-5-[6-(2-isoquinolin-5-yl-ethylamino)-pyrimidin-4-yl]-thiophen-2-yl}-[1,2,4]oxadiazol-5(4H)-one]
14 | 44 | 181 | 130 | 110 | CCOc1cc(-c2cc(NCCc3cccc4c(C)cccc34)ncn2)ccc1CC(=O)O [Example 164, (2-Ethoxy-4-{6-[2-(5-methyl-naphthalen-1-yl)-ethylamino]-pyrimidin-4-yl}-phenyl)-acetic acid]
15 | 20 | 264 | 27 | 548 | CCc1nc(-c2cc(NCCc3c(OC)ccc4ccccc34)ncn2)sc1C(=O)O [Example 148, 4-Ethyl-2-{6-[2-(2-methoxy-naphthalen-1-yl)-ethylamino]-pyrimidin-4-yl}-thiazole-5-carboxylic Acid]
16 | 8 | 280 | 91 | 351 | COc1ccc2ccccc2c1CCNc1cc(-c2ccc(-c3cc(O)no3)cc2)ncn1 [Example 134, 5-(4-{6-[2-(2-Methoxy-naphthalen-1-yl)-ethylamino]-pyrimidin-4-yl}-phenyl)-isoxazol-3-ol]
17 | 8 | 29 | 24 | 29 | CCOc1cc(-c2cc(NCCc3c(OC)ccc4ccccc34)ncn2)ccc1-c1nnn[nH]1 [Example 125, {6-[3-Ethoxy-4-(1H-tetrazol-5-yl)-phenyl]-pyrimidin-4-yl}-[2-(2-methoxy-naphthalen-1-yl)-ethyl]amine]
18 | 33 | 314 | 79 | 73 | CCOc1cc(-c2cc(NCCc3cccc4ccsc34)ncn2)sc1C(=O)O [Example 103, 5-[6-(2-Benzo[b]thiophen-7-yl-ethylamino)-pyrimidin-4-yl]-3-ethoxy-thiophene-2-carboxylic acid]
19 | 45 | 2230 | 16 | 296 | COc1ccc2ccccc2c1CCNc1cc(-c2ccc(C(=O)O)c(OCCO)c2)ncn1 [Example 155, 2-(2-Hydroxy-ethoxy)-4-{6-[2-(2-methoxy-naphthalen-1-yl)-ethylamino]-pyrimidin-4-yl}-benzoic acid]
20 | 133 | 206 | 206 | 76 | CCSc1cc(-c2cc(NCCc3ccc(C)c4ccccc34)ncn2)ccc1C(=O)O [Example 100, 2-Ethylsulfanyl-4-{6-[2-(4-methyl-naphthalen-1-yl)-ethylamino]-pyrimidin-4-yl}-benzoic acid]
21 | 3 | 24 | 10 | 86 | CCOc1cc(-c2cc(NCCc3c(OC)ccc4ccccc34)ncn2)sc1C(=O)NS(C)(=O)=O [Example 136, N-(3-Ethoxy-5-{6-[2-(2-methoxy-naphthalen-1-yl)-ethylamino]-pyrimidin-4-yl}-thiophene-2-carbonyl)-methanesulfonamide]
